Activity calls are given as the source filed them.
Legend:
[1] = biological target: Mothers against decapentaplegic homolog 3 (Homo sapiens, UniProt P84022); experiment: blockers of Smad3 complex formation in lysate – cell lysate, secondary confirmation, chemiluminescent ELISA, HEK293 lysate, dose response (AID 1058); assay type: functional
[2] = biological target: Scavenger receptor class B member 1 (Mus musculus, UniProt Q61009); experiment: mouse SR-BI DiI-HDL uptake blockers – ldlA[mSR-BI] cells, fluorescence, cherry pick, dose response (AID 493194); assay type: functional, cell-based;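 note: cellular uptake of fluorescent DiI-labeled HDL measured as cell fluorescence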
[3] = biological target: G2/mitotic-specific cyclin-B1 (Homo sapiens, UniProt P14635); experiment: Counterscreen assay for inhibitors of Wee1 degradation: dose response cell-based assay to identify inhibitors of cyclin B degradation. [Related pubchem assays: 1410, 1321 ]; assay type: functional
[4] = biological target: E3 ubiquitin-protein ligase Mdm2 (Homo sapiens, UniProt Q00987); experiment: MDM2-luc reporter signal enhancers, multi-concentration potency testing, MDM2 ubiquitin-protein ligase inhibitor program, whole-cell format, luminescence detection, 384-well microplate (AID 1394); assay type: functional;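 note: MDM2 E3 inhibitors raise luminescence so EC50 is for signal enhancement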
Sequence of E3 ubiquitin-protein ligase Mdm2 (Q00987 whole entry): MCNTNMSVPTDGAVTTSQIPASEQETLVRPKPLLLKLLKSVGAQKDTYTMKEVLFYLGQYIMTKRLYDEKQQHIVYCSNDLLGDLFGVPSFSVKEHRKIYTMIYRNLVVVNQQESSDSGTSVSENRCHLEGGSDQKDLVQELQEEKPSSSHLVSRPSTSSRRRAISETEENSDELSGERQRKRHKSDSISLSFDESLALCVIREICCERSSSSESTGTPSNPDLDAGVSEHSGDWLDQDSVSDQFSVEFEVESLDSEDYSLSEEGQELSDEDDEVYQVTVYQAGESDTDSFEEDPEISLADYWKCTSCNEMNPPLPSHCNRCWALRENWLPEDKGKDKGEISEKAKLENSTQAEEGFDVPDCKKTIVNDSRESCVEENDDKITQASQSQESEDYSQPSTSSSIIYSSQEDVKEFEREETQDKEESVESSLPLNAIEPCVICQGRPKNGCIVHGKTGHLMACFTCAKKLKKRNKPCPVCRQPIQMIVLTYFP

[5] = biological target: Sphingosine 1-phosphate receptor 2 (Homo sapiens, UniProt O95136); experiment: Dose Response Cell Based Assay for Antagonists of the S1P2 Receptor. [Related pubchem assays: 856, 736 ]; assay type: functional
HeLa = experiment: Cytotoxicity counterscreen assay for transcriptional activators of heat shock protein 70 (Hsp70). [Related pubchem assays: 1203, 1252 ]; assay type: functional; conditions: Homo sapiens
Wee1-like protein kinase = Wee1-like protein kinase (Homo sapiens, UniProt P30291); experiment: Dose Response Cell-based Assay for Inhibitors of Wee1 Degradation. [Related pubchem assays: 1410, 1321 ]; assay type: functional
Sequence of Wee1-like protein kinase (P30291 whole entry): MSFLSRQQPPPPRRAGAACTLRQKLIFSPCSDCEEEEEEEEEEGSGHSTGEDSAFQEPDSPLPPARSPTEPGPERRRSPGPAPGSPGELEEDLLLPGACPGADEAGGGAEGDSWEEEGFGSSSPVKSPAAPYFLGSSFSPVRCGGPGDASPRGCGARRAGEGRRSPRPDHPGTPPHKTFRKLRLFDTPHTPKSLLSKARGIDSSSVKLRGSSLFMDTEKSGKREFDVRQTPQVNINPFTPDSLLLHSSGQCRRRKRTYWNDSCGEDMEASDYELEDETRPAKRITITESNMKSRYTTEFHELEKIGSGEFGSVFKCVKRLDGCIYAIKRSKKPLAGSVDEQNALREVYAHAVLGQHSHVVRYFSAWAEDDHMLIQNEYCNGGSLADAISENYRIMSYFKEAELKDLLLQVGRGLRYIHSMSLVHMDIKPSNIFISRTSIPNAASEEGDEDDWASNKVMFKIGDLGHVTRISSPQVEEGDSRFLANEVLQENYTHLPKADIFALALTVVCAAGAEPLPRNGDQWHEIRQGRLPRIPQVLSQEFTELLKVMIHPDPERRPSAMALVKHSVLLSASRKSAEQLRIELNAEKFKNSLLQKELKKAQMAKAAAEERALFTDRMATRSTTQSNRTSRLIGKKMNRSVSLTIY

Beta-galactosidase [6] = biological target: T1, Beta-galactosidase (Escherichia coli, UniProt Q8VNN2); experiment: PubChem AID 485352; assay type: functional
T1 sequence (Q8VNN2 whole entry): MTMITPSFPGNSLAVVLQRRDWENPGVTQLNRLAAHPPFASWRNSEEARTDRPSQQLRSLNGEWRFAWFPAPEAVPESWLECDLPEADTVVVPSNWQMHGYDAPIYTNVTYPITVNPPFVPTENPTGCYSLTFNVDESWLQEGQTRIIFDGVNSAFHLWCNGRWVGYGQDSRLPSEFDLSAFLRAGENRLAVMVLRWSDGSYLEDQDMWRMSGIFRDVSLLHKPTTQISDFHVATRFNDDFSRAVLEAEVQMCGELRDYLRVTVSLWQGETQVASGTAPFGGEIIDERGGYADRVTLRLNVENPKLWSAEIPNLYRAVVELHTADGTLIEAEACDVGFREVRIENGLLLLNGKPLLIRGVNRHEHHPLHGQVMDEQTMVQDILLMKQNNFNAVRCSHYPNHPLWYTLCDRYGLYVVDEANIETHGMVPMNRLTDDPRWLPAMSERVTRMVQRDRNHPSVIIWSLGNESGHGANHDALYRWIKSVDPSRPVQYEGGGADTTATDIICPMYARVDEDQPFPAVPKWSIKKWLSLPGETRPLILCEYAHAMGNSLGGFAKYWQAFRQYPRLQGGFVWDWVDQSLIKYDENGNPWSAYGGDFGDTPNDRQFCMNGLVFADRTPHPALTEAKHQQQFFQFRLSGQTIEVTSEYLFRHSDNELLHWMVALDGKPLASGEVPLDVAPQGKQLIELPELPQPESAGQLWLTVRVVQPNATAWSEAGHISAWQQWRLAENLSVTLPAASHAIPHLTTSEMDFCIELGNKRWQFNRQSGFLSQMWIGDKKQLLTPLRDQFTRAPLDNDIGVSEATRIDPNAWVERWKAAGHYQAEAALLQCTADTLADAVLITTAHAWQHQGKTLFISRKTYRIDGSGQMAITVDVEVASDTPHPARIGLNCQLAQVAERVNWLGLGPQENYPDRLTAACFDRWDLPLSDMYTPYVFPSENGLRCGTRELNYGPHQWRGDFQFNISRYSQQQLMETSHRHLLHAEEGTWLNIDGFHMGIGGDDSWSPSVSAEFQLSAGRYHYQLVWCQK

[7] = biological target: Luciferin 4-monooxygenase (Photinus pyralis, UniProt P08659); experiment: inhibition of purified Photinus pyralis luciferase – biochemical, luminescence, dose response (AID 1891)
[8] = Luminescence Cell-Based Dose Confirmation HTS to Identify Inhibitors of Platelet Dense Granule Release. [Related pubchem assays: 1663 (Primary HTS), 1678 (Summary of Project)]; assay type: functional
[9] = microbe, parasite or virus in culture; assay type: functional; conditions: Mycobacterium tuberculosis
[10] = Luminescence-based dose response cell-based high throughput screening assay for cytotoxic compounds using the IEC-6 intestinal epithelial cell line. [Related pubchem assays: 1858 (Summary AID.), 1825 (Counterscreen.), 1907 (Confirmation screen.)]; assay type: functional
[11] = biological target: T2, Type-1 angiotensin II receptor (Homo sapiens, UniProt P30556); experiment: antagonism of angiotensin II type 1 receptor – cell-based, uHTS hits, selectivity assay for APJ receptor antagonist project, dose response (AID 463214); assay type: functional;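 note: antagonist potency against angiotensin II stimulated AT1 response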
T2 sequence (P30556 whole entry): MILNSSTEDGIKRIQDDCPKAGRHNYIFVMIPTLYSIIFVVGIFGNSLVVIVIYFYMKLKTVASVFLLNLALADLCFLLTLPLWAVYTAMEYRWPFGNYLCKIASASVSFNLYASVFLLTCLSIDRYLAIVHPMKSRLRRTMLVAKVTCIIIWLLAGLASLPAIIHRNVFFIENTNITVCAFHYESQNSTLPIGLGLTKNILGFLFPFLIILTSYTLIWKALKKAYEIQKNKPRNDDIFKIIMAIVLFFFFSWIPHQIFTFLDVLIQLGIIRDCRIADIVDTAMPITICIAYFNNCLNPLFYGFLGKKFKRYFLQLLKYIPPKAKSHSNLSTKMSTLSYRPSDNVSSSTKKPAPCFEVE

[12] = biological target: T3, Kappa-type opioid receptor (Homo sapiens, UniProt P41145); assay type: functional
T3 sequence (P41145 whole entry): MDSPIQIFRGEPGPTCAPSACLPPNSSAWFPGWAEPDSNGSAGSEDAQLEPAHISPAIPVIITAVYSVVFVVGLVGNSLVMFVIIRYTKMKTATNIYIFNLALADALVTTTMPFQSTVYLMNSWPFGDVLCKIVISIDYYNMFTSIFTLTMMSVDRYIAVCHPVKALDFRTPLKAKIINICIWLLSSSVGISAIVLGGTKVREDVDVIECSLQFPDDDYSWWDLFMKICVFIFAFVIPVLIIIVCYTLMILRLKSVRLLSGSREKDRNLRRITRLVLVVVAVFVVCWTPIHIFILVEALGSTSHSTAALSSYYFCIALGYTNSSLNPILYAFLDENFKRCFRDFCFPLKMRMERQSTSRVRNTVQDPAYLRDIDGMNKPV

Beta-galactosidase [13] = biological target: T1, Beta-galactosidase; assay type: functional
[14] = biological target: Sphingosine 1-phosphate receptor 4 (Homo sapiens, UniProt O95977); experiment: Fluorescence dose response cell-based high throughput screening assay for antagonists of the Sphingosine 1-Phosphate Receptor 4 (S1P4). [Related pubchem assays: 1524 (Confirmation in triplicates.), 1510 (Primary screen.)]; assay type: functional
Sequence of Sphingosine 1-phosphate receptor 4 (O95977 whole entry): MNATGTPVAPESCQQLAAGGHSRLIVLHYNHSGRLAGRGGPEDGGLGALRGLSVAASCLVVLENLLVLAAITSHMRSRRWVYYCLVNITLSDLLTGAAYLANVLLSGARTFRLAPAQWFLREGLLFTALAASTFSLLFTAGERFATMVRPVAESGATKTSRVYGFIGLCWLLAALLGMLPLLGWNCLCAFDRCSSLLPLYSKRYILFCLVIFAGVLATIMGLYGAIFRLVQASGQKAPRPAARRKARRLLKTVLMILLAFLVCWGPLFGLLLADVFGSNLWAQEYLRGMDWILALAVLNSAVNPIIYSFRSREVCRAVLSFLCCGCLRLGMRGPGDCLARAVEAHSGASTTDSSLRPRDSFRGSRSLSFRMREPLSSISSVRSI

[15] = biological target: T3, Kappa-type opioid receptor; assay type: functional; remark: listed apart in the source
[16] = biological target: Sphingosine 1-phosphate receptor 1 (Homo sapiens, UniProt P21453); assay type: functional;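 note: Tango beta-arrestin reporter U2OS cells stimulated with S1P near its EC80; inhibitor potency meaning antagonism of receptor activation by the natural agonist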
Sequence of Sphingosine 1-phosphate receptor 1 (P21453 whole entry): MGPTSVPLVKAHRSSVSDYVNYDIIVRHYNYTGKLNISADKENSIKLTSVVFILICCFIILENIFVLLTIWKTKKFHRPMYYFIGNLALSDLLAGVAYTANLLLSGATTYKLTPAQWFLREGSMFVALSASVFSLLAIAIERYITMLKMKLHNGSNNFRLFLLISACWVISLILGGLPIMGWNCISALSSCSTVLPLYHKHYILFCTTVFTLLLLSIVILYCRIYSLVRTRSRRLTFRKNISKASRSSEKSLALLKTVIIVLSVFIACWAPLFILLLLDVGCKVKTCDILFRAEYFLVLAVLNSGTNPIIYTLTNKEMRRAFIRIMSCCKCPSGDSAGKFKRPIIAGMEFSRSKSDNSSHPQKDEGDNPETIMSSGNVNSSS

[17] = HEK-293T viability loss after treatment – luminescence, T-cell screen hits, cytotoxicity control for TCR NF-kB inhibitor project, dose response (AID 489026); assay type: functional, cell-based;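 note: cells exposed to compound about 14 hours before the viability readout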
INS1 = experiment: INS-1E survival protection against cytokine death – cell-based, luminescence, retest, dose response (AID 449756); assay type: functional; conditions: Rattus norvegicus;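 note: cell death triggered by IL-1 beta plus TNF-alpha plus IFN-gamma mixture; protective hits raise ATP signal compared with cytokine alone wells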
[18] = biological target: Guanyl-specific ribonuclease T1 (Aspergillus oryzae (strain ATCC 42149 / RIB 40), UniProt P00651); experiment: inhibition of ribonuclease T1 activity – biochemical, fluorescence polarization, 1536-well, counter-screen for TPT1 inhibitor project, dose response (AID 2167)
SUMO-activating enzyme [19] = biological target: T4, SUMO-activating enzyme (Homo sapiens, UniProt Q9UBT2); experiment: blockers of UBC9-mediated SUMO conjugation – biochemical, AlphaScreen, SUMOylation inhibitor project, confirmation (AID 2018); assay type: functional
T4 sequence (Q9UBE0 whole entry): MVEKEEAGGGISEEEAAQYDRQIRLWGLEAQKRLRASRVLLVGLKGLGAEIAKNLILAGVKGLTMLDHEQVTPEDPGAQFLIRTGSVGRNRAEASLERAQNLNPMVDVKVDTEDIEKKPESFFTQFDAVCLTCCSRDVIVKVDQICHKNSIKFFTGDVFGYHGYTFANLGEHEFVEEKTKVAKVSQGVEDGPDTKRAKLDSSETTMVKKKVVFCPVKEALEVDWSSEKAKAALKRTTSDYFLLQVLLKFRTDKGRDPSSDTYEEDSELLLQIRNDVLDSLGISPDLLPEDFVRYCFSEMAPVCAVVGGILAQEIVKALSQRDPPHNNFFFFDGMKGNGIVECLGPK
T4 sequence (Q9UBT2 whole entry): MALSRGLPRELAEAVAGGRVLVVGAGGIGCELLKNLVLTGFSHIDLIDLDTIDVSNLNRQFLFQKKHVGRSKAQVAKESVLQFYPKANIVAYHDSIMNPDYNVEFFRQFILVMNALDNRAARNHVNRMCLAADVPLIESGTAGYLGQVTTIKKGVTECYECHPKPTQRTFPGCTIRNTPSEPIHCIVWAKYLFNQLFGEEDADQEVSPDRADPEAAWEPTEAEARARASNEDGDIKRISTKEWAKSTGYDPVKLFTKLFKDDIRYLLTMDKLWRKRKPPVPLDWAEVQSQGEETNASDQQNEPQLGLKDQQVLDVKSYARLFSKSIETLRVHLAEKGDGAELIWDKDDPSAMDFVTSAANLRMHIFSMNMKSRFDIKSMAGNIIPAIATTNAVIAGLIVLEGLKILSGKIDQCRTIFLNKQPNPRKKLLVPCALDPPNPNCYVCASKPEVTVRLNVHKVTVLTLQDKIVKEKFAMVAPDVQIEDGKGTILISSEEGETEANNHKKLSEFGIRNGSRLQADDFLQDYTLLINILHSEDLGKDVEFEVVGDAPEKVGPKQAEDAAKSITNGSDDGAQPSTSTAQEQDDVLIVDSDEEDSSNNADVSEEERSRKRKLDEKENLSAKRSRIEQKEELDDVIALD

SUMO-activating enzyme [20] = biological target: T4, SUMO-activating enzyme; experiment: blockers of SAE1/SAE2–UBC9 SUMO transfer – biochemical, HTRF, uHTS, primary screen (AID 2006); assay type: protein-complex assay
[21] = biological target: Likely tRNA 2'-phosphotransferase (Candida albicans (strain SC5314 / ATCC MYA-2876) (Yeast), UniProt Q5A7N4); experiment: inhibition of Candida TPT1 enzyme activity – biochemical, fluorescence polarization, dose response (AID 2160)
Sequence of Likely tRNA 2'-phosphotransferase (Q5A7N4 whole entry): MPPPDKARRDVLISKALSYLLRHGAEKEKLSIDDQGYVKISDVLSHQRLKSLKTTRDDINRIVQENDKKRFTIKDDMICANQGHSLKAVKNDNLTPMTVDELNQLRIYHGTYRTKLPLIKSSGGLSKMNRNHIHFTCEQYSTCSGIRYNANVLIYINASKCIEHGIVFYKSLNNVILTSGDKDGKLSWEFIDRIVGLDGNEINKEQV

[22] = ADP-Glo luciferase signal interference – biochemical, luminescence, cherry-picked samples, set 2, artefact control for CDK5 inhibitor project, dose response (AID 504546); assay type: functional, cell-based
[23] = biological target: Lysosomal acid glucosylceramidase (Homo sapiens, UniProt P04062); experiment: Dose response cell-based high throughput screening assay to identify enhancers of beta-glucosidase activity. [Related pubchem assays: 784 ]; assay type: functional
Interleukin-8 = biological target: T5, Interleukin-8 (Homo sapiens, UniProt P10145); experiment: SAR analysis of tumor necrosis factor alpha (TNF-alpha) induced IL-8 secretion in MCF-7/NOD1 cells. [Related pubchem assays (depositor defined):AID1575, AID2250, AID2260]; assay type: functional, cell-based
T5 sequence (P10145 whole entry): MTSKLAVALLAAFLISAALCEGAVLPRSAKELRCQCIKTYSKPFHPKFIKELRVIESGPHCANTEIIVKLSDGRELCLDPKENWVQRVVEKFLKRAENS

Protein Rev = Protein Rev (Human immunodeficiency virus type 1 group M subtype B (isolate WMJ22)(HIV-1), UniProt P05866); experiment: inhibitors of Rev protein–RRE RNA complex – biochemical, protein-RNA interaction, dose response (AID 842); parameters: species or system Human immunodeficiency virus 1
Tumor necrosis factor = Tumor necrosis factor (Homo sapiens, UniProt P01375); experiment: analog potency on TNFa NF-kB signaling – cell-based, revised, SAR follow-up (AID 2337); assay type: functional
[24] = biological target: T6, Nucleotide-binding oligomerization domain-containing protein 1 (Homo sapiens, UniProt Q9Y239); experiment: blockers of NOD1 pathway activity – revised, SAR follow-up (AID 2333); assay type: functional
T6 sequence (Q9Y239 whole entry): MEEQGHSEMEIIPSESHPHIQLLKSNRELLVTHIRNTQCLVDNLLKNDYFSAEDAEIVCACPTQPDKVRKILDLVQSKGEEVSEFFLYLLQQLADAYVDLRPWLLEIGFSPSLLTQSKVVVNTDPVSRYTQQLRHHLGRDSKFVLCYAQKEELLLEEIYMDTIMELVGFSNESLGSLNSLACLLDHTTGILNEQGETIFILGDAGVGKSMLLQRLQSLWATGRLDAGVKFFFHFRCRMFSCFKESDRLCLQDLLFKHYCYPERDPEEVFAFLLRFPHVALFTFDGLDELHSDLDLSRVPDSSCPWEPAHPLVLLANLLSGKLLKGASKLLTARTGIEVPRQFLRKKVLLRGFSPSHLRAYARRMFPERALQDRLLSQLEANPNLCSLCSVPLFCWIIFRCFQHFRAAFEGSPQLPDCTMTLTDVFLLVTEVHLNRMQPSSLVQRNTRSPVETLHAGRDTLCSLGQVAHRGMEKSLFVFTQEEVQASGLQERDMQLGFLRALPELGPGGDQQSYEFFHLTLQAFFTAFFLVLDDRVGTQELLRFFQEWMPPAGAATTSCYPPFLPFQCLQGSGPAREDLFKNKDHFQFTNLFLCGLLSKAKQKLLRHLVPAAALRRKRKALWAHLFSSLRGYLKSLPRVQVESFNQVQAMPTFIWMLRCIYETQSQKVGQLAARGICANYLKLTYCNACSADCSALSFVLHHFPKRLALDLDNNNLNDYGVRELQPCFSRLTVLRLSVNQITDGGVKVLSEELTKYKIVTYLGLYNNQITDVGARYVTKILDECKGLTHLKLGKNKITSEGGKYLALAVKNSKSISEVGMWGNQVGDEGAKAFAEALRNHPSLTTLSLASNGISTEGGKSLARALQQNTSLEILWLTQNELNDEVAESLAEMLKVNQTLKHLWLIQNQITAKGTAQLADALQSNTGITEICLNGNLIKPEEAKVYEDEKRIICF

[25] = biological target: Nucleotide-binding oligomerization domain-containing protein 2 (Homo sapiens, UniProt Q9HC29); experiment: PubChem AID 2334; assay type: functional
HEK293 = experiment: cells; conditions: Homo sapiens;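 note: cells exposed to compound for 14 hours overnight before viability readout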
Staphylococcus aureus = experiment: Inhibitors of Bacterial Quorum Sensing Structure Activity Relationship (SAR) Analysis: Dose Response Assay. [Related pubchem assays: 700, 527 ]; assay type: functional, organism-based
Cytochrome P450 2C19 = Cytochrome P450 2C19 (Homo sapiens, UniProt P33261); experiment: qHTS Assay for Inhibitors and Substrates of Cytochrome P450 2C19. [Related pubchem assays: 410 ]; assay type: ADME; conditions: read-out: Potency
[26] = blockers of HIV-1 envelope-mediated cell-cell fusion – cherry-pick, dose response (AID 652057); assay type: functional, cell-based
[27] = viability loss in CEM21 cells – cell-based, CellTiter-Glo luminescence, cherry-picked, cytotoxicity control for viral fusion inhibitor project, dose response (AID 652042); assay type: functional;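 note: potency for signal decrease meaning cytotoxicity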
[28] = blockers of HIV-1 ZM109 envelope-driven cell-cell fusion – HeLa effector, CEM target cells, luciferase, cherry-pick, dose response (AID 652058); assay type: functional, cell-based;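 note: luciferase signal from HIV-1 Env mediated cell-cell fusion of effector and target cells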
[29] = off-target signal loss in HeLa-CEM21 co-culture – HeLa F-luc CTL cells, cherry-picked, counter-screen for HIV-1 Env fusion inhibitor project, dose response (AID 652040); assay type: functional, cell-based;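 note: potency for signal decrease marking cytotoxic or nonspecific inhibition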
[30] = HIV-1 AD8 envelope cell-cell fusion blockers – cherry-pick, dose response (AID 652062); assay type: functional, cell-based;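 note: luciferase signal from cell-cell fusion driven by HIV-1 clade B AD8 Env; potency is for inhibitors of fusion seen as a drop in luminescence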
Cytochrome P450 2C9 = Cytochrome P450 2C9 (Homo sapiens, UniProt P11712); conditions: Potency
Sequence of Cytochrome P450 2C9 (P11712 whole entry): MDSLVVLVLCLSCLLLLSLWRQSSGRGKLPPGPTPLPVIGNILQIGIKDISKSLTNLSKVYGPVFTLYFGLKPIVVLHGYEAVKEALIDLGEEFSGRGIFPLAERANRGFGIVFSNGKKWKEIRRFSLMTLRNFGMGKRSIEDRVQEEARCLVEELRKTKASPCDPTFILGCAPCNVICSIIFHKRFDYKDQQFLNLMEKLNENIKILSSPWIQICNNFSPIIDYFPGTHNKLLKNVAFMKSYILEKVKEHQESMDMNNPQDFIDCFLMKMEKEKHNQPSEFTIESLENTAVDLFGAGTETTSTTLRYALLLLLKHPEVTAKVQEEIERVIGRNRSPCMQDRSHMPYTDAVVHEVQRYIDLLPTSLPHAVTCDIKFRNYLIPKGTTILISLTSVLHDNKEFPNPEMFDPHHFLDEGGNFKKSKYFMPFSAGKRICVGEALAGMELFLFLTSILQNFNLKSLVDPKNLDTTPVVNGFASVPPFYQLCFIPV

COc1ccc(C(c2cc3c(cc2O)OCO3)N2CCOCC2)cc1 (stereo unspecified)
IC50 [1]: 6.51 µM (not active)

CC(=O)c1c(C(C)=O)c(C)n(-c2ccc(C)c(NC(=O)c3ccccc3Cl)c2)c1C
AC50 [2]: 0.043 µM (active)

COc1ccc(NC(=O)/C(Cl)=C(/Cl)[S+]([O-])Cc2ccc(C)cc2)cn1 (stereo unspecified)
EC50 [3]: > 49.7 µM (not active)
EC50 [4]: 0.96 µM (active)
IC50 [5]: 0.967 µM (active)
CC50 (HeLa): 1.12 µM (active)
EC50 (Wee1-like protein kinase): > 49.7 µM (not active)
EC50 (Beta-galactosidase [6]): > 40 µM (inactive)
EC50 [7]: > 112 µM (not active)
EC50 [8]: 5.74 µM (active)
CC50 [9]: 2.13 µM (active)
IC50 [10]: 0.879 µM (active)
IC50 [11]: 2.26 µM (active)
IC50 [12]: 3.76 µM (active)
EC50 (Beta-galactosidase [13]): > 31.5 µM (inactive)
IC50 [14]: 0.396 µM (active)
IC50 [15]: 4.71 µM
IC50 [16]: 4.46 µM (active)
IC50 [17]: 29.8 µM (inactive)
AC50 (INS1): 0.855 µM (active)

COc1cc(/C=C2\SC(=O)N(CC(=O)Nc3ccccc3F)C2=O)cc(Cl)c1O
IC50 [18]: 0.238 µM (active)
IC50 (SUMO-activating enzyme [19]): 22.1 µM (active)
IC50 (SUMO-activating enzyme [20]): 15.6 µM (active)
IC50 [21]: 0.275 µM (active)

COc1cccc(C(=O)O/N=C(\N)c2ccccn2)c1
EC50 [8]: 3.65 µM (active)
AC50 [22]: 26.7 µM (active)

CN(CC(=O)Nc1ccc(F)c(F)c1)S(=O)(=O)c1cccc2nsnc12
EC50 [23]: > 50 µM (not active)

Nc1nc2ccccc2n1S(=O)(=O)c1ccc(Cl)cc1
IC50 (Interleukin-8): > 5 µM (inactive)

COC(=O)c1c(C(=O)OC)n(CCCN)c2ccc(C)cc12
IC50 (Protein Rev): > 79.4 µM (not active)

CN(C)c1ccc(C(=O)Nc2nc3ccccc3n2Cc2ccc(Cl)cc2)cc1
IC50 (Tumor necrosis factor): > 20 µM (inactive)
IC50 [24]: > 20 µM (inactive)
IC50 [25]: > 20 µM (inactive)
IC50 (HEK293): > 20 µM (inactive)

O=C(O)Cc1ccccc1Nc1c(Cl)cccc1Cl [DICLOFENAC]
IC50 (Staphylococcus aureus): 0.943 µM (active)

COc1ccc2[nH]c(=O)c3c(c2c1)OC(C)(C)C=C3 [HAPLAMINE]
AC50 (Cytochrome P450 2C19): 7.94 µM (inconclusive)
AC50 [26]: 5.53 µM (active)
AC50 [27]: 14.8 µM (active)
AC50 [28]: 5.32 µM (active)
AC50 [29]: 10.4 µM (active)
AC50 [30]: 3.86 µM (active)
AC50 (Cytochrome P450 2C9): 25.1 µM (inconclusive)

Reference: ChEMBL document CHEMBL1201862, “PubChem BioAssay data set” (2004)
